Experimental data reported in patent publication US11220483B2, “Tetrahydro-benzo[d]azepine derivatives as GPR120 modulators” (CALDAN THERAPEUTICS LIMITED, priority 2018, dated 2022).

Molecular target: T1, human GPR120 (Homo sapiens, UniProt Q5NUL3)
T1 construct: expressed in transfected cells; host or cells: HEK293T, transient transfection with PEI
T1 sequence (Q5NUL3 1-361): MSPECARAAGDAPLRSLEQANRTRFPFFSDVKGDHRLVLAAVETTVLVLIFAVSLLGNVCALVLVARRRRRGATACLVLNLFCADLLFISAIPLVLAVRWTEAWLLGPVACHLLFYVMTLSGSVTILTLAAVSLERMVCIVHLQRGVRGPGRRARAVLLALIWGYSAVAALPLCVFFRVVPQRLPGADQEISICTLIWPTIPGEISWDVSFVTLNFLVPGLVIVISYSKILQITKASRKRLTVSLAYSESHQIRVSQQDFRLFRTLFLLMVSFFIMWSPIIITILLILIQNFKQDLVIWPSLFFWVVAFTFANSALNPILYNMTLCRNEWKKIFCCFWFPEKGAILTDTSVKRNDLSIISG
Experiment: Human GPR120-β Arrestin 2 BRET agonist assay
Type: cell-based
Conditions: HEK293T cells transiently co-expressing hGPR120-eYFP and β-arrestin 2-RLuc; BRET normalised to DMSO (0%) and TUG-891 (100%); read-out: hGPR120 pEC50 (converted)
Protocol: pEC50 data was obtained by the following procedure:
Human GPR120-β Arrestin 2 Bio-Luminescence Resonance Energy Transfer (BRET) Agonist Assay Procedure
HEK293T cells were cultured in growth media composed of DMEM L-glutamine media supplemented with 10% (v:v) fetal bovine serum (FBS) and 1% (v:v) 10,000 units penicillin/10 mgml^−1 streptomycin at 37° C., 5% CO2. HEK293T cells transiently co-expressing human GPR120 […] and b-arrestin 2 were generated by transfection with plasmids encoding a construct of hGPR120 […] fused at its C terminal with enhanced yellow fluorescent protein (eYFP), and another encoding β-arrestin 2 fused to Renilla luciferase (RLuc), using Polyethylenimine (PEI) as the transfection reagent.
Transfected cells were cryopreserved in batches for consistency between replicate assays. Twenty-four hours post transfection, cells were harvested with non-enzymatic cell dissociation buffer and re-suspended in DMEM medium supplemented with 10% DMSO and 10% FBS before being transferred first to −80° C. overnight and then to liquid nitrogen for long-term storage. On the day prior to the assay, cells were thawed at 37° C. and re-suspended in growth media. A 96 well white opaque bottom microtitre plate was then seeded with 40,000 cells in a volume of 100 μl growth media per well and seeded plates were then incubated overnight at 37° C., 5% CO2. On the day of the BRET experiment, cells were washed twice with BRET assay buffer (Hanks balanced salt solution (HBSS) supplemented with 10 mM HEPES (pH 7.4)), then 80 μl per well of BRET assay buffer was added before the plate was incubated for 30 minutes at 37° C., 5% CO2. Then, Renilla luciferase substrate coelenterazine h (5 μM) was added to the cells and incubated at 37° C. for 10 minutes before the addition of GPR120 agonist (TUG-891) or test compound for a further 5 minutes at 37° C.
Bio-luminescence at λ 535 nm and λ 475 nm was then measured with a Pherastar FsX instrument, and the λ 535/λ 475 ratio of bio-luminescence was then used to calculate a BRET value. hGPR120 agonist potency values (pEC50) were calculated by normalising the BRET values to the DMSO vehicle (0% control) and TUG-891 (100% control) and then fitting the normalised data to a 3-parameter concentration-response curve.

Compound	EC50
O=C(O)CCc1ccc2c(c1)CCN(c1cc(OC3CCC3)cc(F)c1F)C2 [Compound 3, 3-(2-(5-cyclobutoxy-2,3-difluorophenyl)-1,2,3,4-tetrahydroisoquinolin-6-yl)propanoic acid]	10 nM
O=C(O)CCc1ccc2c(c1)CCN(c1cccc(OC3CCC3)c1)C2 [Compound 12, 3-(2-(3-cyclobutoxyphenyl)-1,2,3,4-tetrahydroisoquinolin-6-yl)propanoic acid]	158 nM
O=C(O)C1CC1c1ccc2c(c1)CCN(c1cc(OC3CCC3)ccc1F)C2 (racemic) [Compound 34, 2-(2-(5-cyclobutoxy-2-fluorophenyl)-1,2,3,4-tetrahydroisoquinolin-6-yl)cyclopropanecarboxylic Acid]	158 nM
O=C(O)C1CC1c1ccc2c(c1)CCN(c1cccc(Oc3ccccc3)c1)C2 (centres unmarked) [Compound 38, 2-(2-(3-Phenoxyphenyl)-1,2,3,4-tetrahydroisoquinolin-6-yl)cyclopropanecarboxylic Acid]	63.1 nM
O=C(O)CCc1ccc2c(c1)CCN(c1cccnc1OC1CCC1)C2 [Compound 5, 3-(2-(2-cyclobutoxypyridin-3-yl)-1,2,3,4-tetrahydroisoquinolin-6-yl)propanoic acid]	7940 nM
CC(Cc1ccc2c(c1)CCN(c1cc(OC3CCC3)ccc1F)C2)C(=O)O (racemic) [Compound 27, 3-(2-(5-cyclobutoxy-2-fluorophenyl)-1,2,3,4-tetrahydroisoquinolin-6-yl)-2-methylpropanoic acid]	100 nM
O=C(O)CCc1ccc2c(c1)CCN(c1nc(OC3CCC3)c(F)cc1F)C2 [Compound 44, 3-(2-(6-Cyclobutoxy-3,5-difluoropyridin-2-yl)-1,2,3,4-tetrahydroisoquinolin-6-yl)propanoic Acid]	25.1 nM
O=C(O)C1CC1c1ccc2c(c1)CCN(c1cccc(Oc3ccccc3)c1)C2 (single isomer, unassigned) [38 isomer 2]	39.8 nM
CO[C@H]1C[C@H](Oc2ccc(F)c(N3CCc4cc(CCC(=O)O)ccc4C3)c2)C1 [Compound 2, 3-(2-(2-fluoro-5-((1r,3r)-3-methoxycyclobutoxy)phenyl)-1,2,3,4-tetrahydroisoquinolin-6-yl)propanoic acid]	158 nM
O=C(O)CCc1ccc2c(c1)CCN(c1cc(OC3CCC3)ccc1Cl)C2 [Compound 11, 3-(2-(2-chloro-5-cyclobutoxyphenyl)-1,2,3,4-tetrahydroisoquinolin-6-yl)propanoic acid]	50.1 nM
O=C(O)C1CC1c1ccc2c(c1)CCN(c1nc(OC3CCC3)ccc1F)C2 (single isomer, unassigned) [37 Isomer 1]	63.1 nM

Continued, values first:

EC50	Compound
2510 nM	COc1cc(Cl)cc(N2CCc3ccc(CCC(=O)O)cc3C2)c1 [Compound 31, 3-(2-(3-chloro-5-methoxyphenyl)-1,2,3,4-tetrahydroisoquinolin-7-yl)propanoic acid]
398 nM	O=C(O)CCc1ccc2c(c1)CCN(c1cc(F)cc(-c3ccccc3)c1)C2 [Compound 24, 3-(2-(5-fluoro-[1,1′-biphenyl]-3-yl)-1,2,3,4-tetrahydroisoquinolin-6-yl)propanoic acid]
1580 nM	Cc1cc(C)cc(N2CCc3ccc(CCC(=O)O)cc3C2)c1 [Compound 30, 3-(2-(3,5-dimethylphenyl)-1,2,3,4-tetrahydroisoquinolin-7-yl)propanoic Acid]
25100 nM	O=C(O)CCc1ccc2c(c1)CCN(c1ccnc(C3CC3)n1)C2 [Compound 18, 3-(2-(2-cyclopropylpyrimidin-4-yl)-1,2,3,4-tetrahydroisoquinolin-6-yl)propanoic acid]
79.4 nM	O=C(O)C1CC1c1ccc2c(c1)CCN(c1cc(OC3CCC3)ccc1F)C2 (single isomer, unassigned) [34 isomer 2]
158 nM	O=C(O)CCc1ccc2c(c1)CCN(c1ccccc1Oc1ccccc1)C2 [Compound 4, 3-(2-(2-phenoxyphenyl)-1,2,3,4-tetrahydroisoquinolin-6-yl)propanoic acid]
200 nM	O=C(O)CCc1ccc2c(c1)CCCN(c1cc(OC(F)(F)F)ccc1F)C2 [Compound 54, 3-(2-(2-Fluoro-5-(trifluoromethoxy)phenyl)-2,3,4,5-tetrahydro-1H-benzo[c]azepin-7-yl)propanoic Acid]
79.4 nM	N#Cc1ccc(OC(F)(F)F)cc1N1CCc2cc(CCC(=O)O)ccc2C1 [Compound 6, 3-(2-(2-cyano-5-(trifluoromethoxy)phenyl)-1,2,3,4-tetrahydroisoquinolin-6-yl)propanoic acid]
25.1 nM	O=C(O)CCc1ccc2c(c1)CCN(c1cccc(Oc3ccccc3)c1)C2 [Compound 20, 3-(2-(3-phenoxyphenyl)-1,2,3,4-tetrahydroisoquinolin-6-yl)propanoic acid]
100 nM	O=C(O)C1CC1c1ccc2c(c1)CCN(c1cc(OC3CCC3)ccc1F)CC2 (centres unmarked) [Compound 53]
398 nM	CC(C)Oc1cc(F)cc(N2CCc3ccc(CCC(=O)O)cc3CC2)c1 [Compound 49, 3-(3-(3-fluoro-5-isopropoxyphenyl)-2,3,4,5-tetrahydro-1H-benzo[d]azepin-7-yl)propanoic acid]
316 nM	O=C(O)CCc1ccc2c(c1)CCN(c1cccc(OC(F)(F)F)n1)C2 [Compound 22, 3-(2-(6-(trifluoromethoxy)pyridin-2-yl)-1,2,3,4-tetrahydroisoquinolin-6-yl)propanoic acid]
25.1 nM	O=C(O)CCc1ccc2c(c1)CCN(c1cc(Oc3ccccc3)ccc1F)CC2 [Compound 50, 3-(3-(2-fluoro-5-phenoxyphenyl)-2,3,4,5-tetrahydro-1H-benzo[d]azepin-7-yl)propanoic acid]
158 nM	O=C(O)C1CC1c1ccc2c(c1)CCN(c1cc(OC3CCC3)ccc1F)C2 (single isomer, unassigned) [34 isomer 1]
398 nM	O=C(O)CCc1ccc2c(c1)CCN(c1cccc(-c3ccccc3)c1)C2 [Compound 23, 3-(2-([1,1′-biphenyl]-3-yl)-1,2,3,4-tetrahydroisoquinolin-6-yl)propanoic acid]
